Data taken from US9221827B2, “Antimicrobial compounds and methods of making and using the same” (Melinta Therapeutics, Inc., priority 2011, dated 2015).

The compounds below were run on Escherichia coli strain ATCC25922 (assay: standard microdilution assay to determine minimum inhibitory concentrations (MICs)). Settings: Escherichia coli strain ATCC25922, microdilution.
Assay type: cell-based
Method in brief: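 Broth microdilution per CLSI (M7-A8/M100-S20), 100 μl final volume, with reference-strain quality control; MIC is the lowest inhibitory concentration. Scored "+"/"−" against a 16 micrograms/ml cutoff, "N/A" where unavailable.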

| SMILES | E. coli ATCC25922 MIC |
| --- | --- |
| N#Cc1cc(CCCCN)cc(-c2cc3cn(-c4ccc(CNCCCNC(=N)N)cc4)c(=O)nc3[nH]2)c1Cl [Compound 114] | + (a “+” indicates that the compound has an MIC value of 16 micrograms/ml or less) |
| N=C(N)NCCCNCc1ccc(-n2cc3cc(-c4cc(CCCCN)cc([N+](=O)[O-])c4Cl)[nH]c3nc2=O)cc1 [Compound 115] | + (a “+” indicates that the compound has an MIC value of 16 micrograms/ml or less) |
| N=C(N)NCCCNCc1ccc(-n2cc3cc(-c4cc(CCC5(CN)CCC5)ccc4F)[nH]c3nc2=O)cc1 [Compound 116] | + (a “+” indicates that the compound has an MIC value of 16 micrograms/ml or less) |
| CC(C)(CN)CCc1ccc(F)c(-c2cc3cn(-c4ccc(CNCCCNC(=N)N)cc4)c(=O)nc3[nH]2)c1 [Compound 117] | + (a “+” indicates that the compound has an MIC value of 16 micrograms/ml or less) |
| N#Cc1cc(-c2cc3cn(-c4ccc(CNCCCNC(=N)N)cc4)c(=O)nc3[nH]2)cc(CCCCN)c1Cl [Compound 118] | + (a “+” indicates that the compound has an MIC value of 16 micrograms/ml or less) |
| Cc1c(-c2cc3cn(-c4ccc(CNCCCNC(=N)N)cc4)c(=O)nc3[nH]2)cc(CCCCN)cc1[N+](=O)[O-] [Compound 120] | + (a “+” indicates that the compound has an MIC value of 16 micrograms/ml or less) |
| Cc1c(CCCCN)cc(-c2cc3cn(-c4ccc(CNCCCNC(=N)N)cc4)c(=O)nc3[nH]2)cc1[N+](=O)[O-] [Compound 121] | + (a “+” indicates that the compound has an MIC value of 16 micrograms/ml or less) |
| N#Cc1cc(CCCCN)cc(-c2cc3cn(-c4ccc(CNCCCNC(=N)N)cc4)c(=O)nc3[nH]2)c1F [Compound 122] | + (a “+” indicates that the compound has an MIC value of 16 micrograms/ml or less) |
| CCc1cc(CCCCN)cc(-c2cc3cn(-c4ccc(CNCCCNC(=N)N)cc4)c(=O)nc3[nH]2)c1 [Compound 123] | + (a “+” indicates that the compound has an MIC value of 16 micrograms/ml or less) |
| CC(C)(CN)CCc1cc(F)c(Cl)c(-c2cc3cn(-c4ccc(CNCCCNC(=N)N)cc4)c(=O)nc3[nH]2)c1 [Compound 125] | + (a “+” indicates that the compound has an MIC value of 16 micrograms/ml or less) |
| CC(CCN)Cc1cc(F)c(Cl)c(-c2cc3cn(-c4ccc(CNCCCNC(=N)N)cc4)c(=O)nc3[nH]2)c1 (centres unmarked) [Compound 128] | + (a “+” indicates that the compound has an MIC value of 16 micrograms/ml or less) |
| CC(CCN)Cc1cc(-c2cc3cn(-c4ccc(CNCCCNC(=N)N)cc4)c(=O)nc3[nH]2)cc(F)c1Cl (centres unmarked) [Compound 129] | + (a “+” indicates that the compound has an MIC value of 16 micrograms/ml or less) |
| CC(C)(N)CCCc1ccc(F)c(-c2cc3cn(-c4ccc(CNCCCNC(=N)N)cc4)c(=O)nc3[nH]2)c1 [Compound 130] | + (a “+” indicates that the compound has an MIC value of 16 micrograms/ml or less) |
| CC(C)(N)CCCc1cc(OC(F)(F)F)cc(-c2cc3cn(-c4ccc(CNCCCNC(=N)N)cc4)c(=O)nc3[nH]2)c1 [Compound 131] | + (a “+” indicates that the compound has an MIC value of 16 micrograms/ml or less) |
| CC(CCN)Cc1cc(Cl)c(F)c(-c2cc3cn(-c4ccc(CNCCCNC(=N)N)cc4)c(=O)nc3[nH]2)c1 (centres unmarked) [Compound 132] | + (a “+” indicates that the compound has an MIC value of 16 micrograms/ml or less) |
| Cc1cc(CCCCN)cc(-c2cc3cn(-c4ccc(CNCCCNC(=N)N)cc4)c(=O)nc3[nH]2)c1F [Compound 133] | + (a “+” indicates that the compound has an MIC value of 16 micrograms/ml or less) |
| Cc1c(C#N)cc(CCCCN)cc1-c1cc2cn(-c3ccc(CNCCCNC(=N)N)cc3)c(=O)nc2[nH]1 [Compound 134] | + (a “+” indicates that the compound has an MIC value of 16 micrograms/ml or less) |
| CCc1cc(CCCCN)cc(-c2cc3cn(-c4ccc(CNCCCNC(=N)N)cc4)c(=O)nc3[nH]2)c1F [Compound 135] | + (a “+” indicates that the compound has an MIC value of 16 micrograms/ml or less) |
| N=C(N)NCCCNCc1ccc(-n2cc3cc(-c4cc(CCC5(CN)CC5)ccc4F)[nH]c3nc2=O)cc1 [Compound 136] | + (a “+” indicates that the compound has an MIC value of 16 micrograms/ml or less) |
| N=C(N)NCCCNCc1ccc(-n2cc3cc(-c4cc(CCC5(CN)CC5)cc(OC(F)(F)F)c4)[nH]c3nc2=O)cc1 [Compound 137] | + (a “+” indicates that the compound has an MIC value of 16 micrograms/ml or less) |
| N=C(N)NCCCNCc1ccc(-n2cc3cc(-c4cc(CCC5(CN)CCC5)cc(F)c4Cl)[nH]c3nc2=O)cc1 [Compound 138] | + (a “+” indicates that the compound has an MIC value of 16 micrograms/ml or less) |
| N=C(N)NCCCNCc1ccc(-n2cc3cc(-c4cc(CCCCN)c(OC(F)F)cc4F)[nH]c3nc2=O)cc1 [Compound 139] | + (a “+” indicates that the compound has an MIC value of 16 micrograms/ml or less) |

| SMILES | E. coli ATCC25922 MIC |
| --- | --- |
| CC(CN)CN1CC(NC(=O)Nc2nc(=O)c(-c3ccc(CNCCCNC(=N)N)cc3)c[nH]2)CC1COCc1c(Cl)cccc1Cl (centres unmarked) [Compound 150] | − (a “−” indicates that the compound has an MIC value greater than 16 micrograms/ml) |
| CNC[C@@H]1C[C@@H](NC(=O)Nc2nc(=O)c(-c3ccc(CNCCCNC(=N)N)cc3)c[nH]2)CN1C[C@@H](C)CN [Compound 151] | + (a “+” indicates that the compound has an MIC value of 16 micrograms/ml or less) |
| COCCNC[C@@H]1C[C@@H](NC(=O)Nc2nc(=O)c(-c3ccc(CNCCCNC(=N)N)cc3)c[nH]2)CN1C[C@@H](C)CN [Compound 152] | + (a “+” indicates that the compound has an MIC value of 16 micrograms/ml or less) |
| C[C@@H](CN)CN1C[C@H](NC(=O)Nc2nc(=O)c(-c3ccc(CNCCCNC(=N)N)cc3)c[nH]2)C[C@H]1CNCCC1CC1 [Compound 153] | + (a “+” indicates that the compound has an MIC value of 16 micrograms/ml or less) |
| N=C(N)NCCCNCc1ccc(-c2c[nH]c(NC(=O)Nc3ccc(C4CC4)cc3OCCCN)nc2=O)cc1 [Compound 184] | + (a “+” indicates that the compound has an MIC value of 16 micrograms/ml or less) |
| COc1cccc(OCCCN)c1NC(=O)Nc1nc(=O)c(-c2ccc(CNCCCNC(=N)N)cc2)c[nH]1 [Compound 185] | − (a “−” indicates that the compound has an MIC value greater than 16 micrograms/ml) |
| CC(C)c1cccc(OCCCN)c1NC(=O)Nc1nc(=O)c(-c2ccc(CNCCCNC(=N)N)cc2)c[nH]1 [Compound 186] | − (a “−” indicates that the compound has an MIC value greater than 16 micrograms/ml) |
| N=C(N)NCCCNCc1ccc(-c2c[nH]c(NC(=O)Nc3c(Cl)cccc3OCCCN)nc2=O)cc1 [Compound 187] | − (a “−” indicates that the compound has an MIC value greater than 16 micrograms/ml) |
| N=C(N)NCCCNCc1ccc(-c2c[nH]c(NC(=O)Nc3cc(C(F)F)ccc3OCCCN)nc2=O)cc1 [Compound 188] | + (a “+” indicates that the compound has an MIC value of 16 micrograms/ml or less) |
| N=C(N)NCCCNCc1ccc(-c2c[nH]c(NC(=O)Nc3c(OCCCN)cccc3C3CC3)nc2=O)cc1 [Compound 189] | − (a “−” indicates that the compound has an MIC value greater than 16 micrograms/ml) |
| N=C(N)NCCCNCc1ccc(-c2c[nH]c(NC(=O)Nc3c(CO)cccc3OCCCN)nc2=O)cc1 [Compound 190] | − (a “−” indicates that the compound has an MIC value greater than 16 micrograms/ml) |
| Cc1c(-c2cc3cn(-c4ccc(CNCCCNC(=N)N)cc4)c(=O)nc3[nH]2)cc(CCCCN)cc1C(F)(F)F [Compound 212] | + (a “+” indicates that the compound has an MIC value of 16 micrograms/ml or less) |
| N=C(N)NCCCNCc1ccc(-n2cc3cc(-c4cc(CCCCN)cc(OC(F)F)c4Cl)[nH]c3nc2=O)cc1 [Compound 214] | + (a “+” indicates that the compound has an MIC value of 16 micrograms/ml or less) |
| COC(CCCN)c1cc(OC(F)(F)F)cc(-c2cc3cn(-c4ccc(CNCCCNC(=N)N)cc4)c(=O)nc3[nH]2)c1 (centres unmarked) [Compound 216] | + (a “+” indicates that the compound has an MIC value of 16 micrograms/ml or less) |
| CCc1cc(CCCCN)cc(-c2cc3cn(-c4ccc(CNCCCNC(=N)N)cc4)c(=O)nc3[nH]2)c1Cl [Compound 217] | + (a “+” indicates that the compound has an MIC value of 16 micrograms/ml or less) |
| N=C(N)NCCCNCc1ccc(-n2cc3cc(-c4cc(CCCCN)cc(F)c4C(F)(F)F)[nH]c3nc2=O)cc1 [Compound 218] | + (a “+” indicates that the compound has an MIC value of 16 micrograms/ml or less) |
| Cc1cc(CCCC(C)N)cc(-c2cc3cn(-c4ccc(CNCCCNC(=N)N)cc4)c(=O)nc3[nH]2)c1F (centres unmarked) [Compound 219] | + (a “+” indicates that the compound has an MIC value of 16 micrograms/ml or less) |
| N=C(N)NCCCNCc1ccc(-n2cc3cc(-c4cc(CCCCN)cc([S+]([O-])C(F)(F)F)c4Cl)[nH]c3nc2=O)cc1 (centres unmarked) [Compound 220] | + (a “+” indicates that the compound has an MIC value of 16 micrograms/ml or less) |
| N=C(N)NCCCNCc1ccc(-n2cc3cc(-c4cc(CCCCN)cc(OC(F)(F)F)c4)[nH]c3nc2=O)cc1 [Compound 221] | + (a “+” indicates that the compound has an MIC value of 16 micrograms/ml or less) |
| Cc1cc(CCCCN)cc(-c2cc3cn(-c4ccc(CNCCCNC(=N)N)cc4)c(=O)nc3[nH]2)c1C(F)(F)F [Compound 222] | + (a “+” indicates that the compound has an MIC value of 16 micrograms/ml or less) |
| N=C(N)NCCCNCc1ccc(-n2cc3cc(-c4cc(CCC5(CN)CC5)cc(F)c4Cl)[nH]c3nc2=O)cc1 [Compound 223] | + (a “+” indicates that the compound has an MIC value of 16 micrograms/ml or less) |
| N=C(N)NCCCNCc1ccc(-n2cc3cc(-c4cc(CCCN)cc(Cl)c4Cl)[nH]c3nc2=O)cc1 [Compound 224] | + (a “+” indicates that the compound has an MIC value of 16 micrograms/ml or less) |
